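48-hour exposure; five concentrations; linearly interpolated endpoints. Abbreviation: GI50, concentration required for 50% inhibition of growth. The concentration for full growth arrest is given as TGI.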
Assays:
Test in all cases: NCI-60 cell line screen, 48 h
SR leukemia = system: SR leukemia
HT29 colon = system: HT29 colon
MOLT-4 leukemia = system: MOLT-4 leukemia
OVCAR-3 ovarian = system: OVCAR-3 ovarian
ACHN renal = system: ACHN renal
M14 melanoma = system: M14 melanoma
SN12C renal = system: SN12C renal
HS 578T breast = system: HS 578T breast
NCI-H522 lung = system: NCI-H522 lung
COLO 205 colon = system: COLO 205 colon
NCI-H226 lung = system: NCI-H226 lung
U251 CNS = system: U251 CNS
SK-MEL-5 melanoma = system: SK-MEL-5 melanoma
IGROV1 ovarian = system: IGROV1 ovarian
MDA-MB-231 breast = system: MDA-MB-231 breast
T-47D breast = system: T-47D breast
CCRF-CEM leukemia = system: CCRF-CEM leukemia
OVCAR-8 ovarian = system: OVCAR-8 ovarian
MALME-3M melanoma = system: MALME-3M melanoma
UACC-62 melanoma = system: UACC-62 melanoma
SF-268 CNS = system: SF-268 CNS
SK-OV-3 ovarian = system: SK-OV-3 ovarian
SF-295 CNS = system: SF-295 CNS
NCI-H23 lung = system: NCI-H23 lung
UACC-257 melanoma = system: UACC-257 melanoma
HCT-15 colon = system: HCT-15 colon
SK-MEL-28 melanoma = system: SK-MEL-28 melanoma
CAKI-1 renal = system: CAKI-1 renal
786-0 renal = system: 786-0 renal
DU-145 prostate = system: DU-145 prostate
MCF7 breast = system: MCF7 breast
OVCAR-5 ovarian = system: OVCAR-5 ovarian
BT-549 breast = system: BT-549 breast
EKVX NSCLC = system: EKVX NSCLC
RPMI-8226 leukemia = system: RPMI-8226 leukemia
HOP-62 NSCLC = system: HOP-62 NSCLC
SNB-19 CNS = system: SNB-19 CNS
TK-10 renal = system: TK-10 renal
MDA-MB-435 = system: MDA-MB-435
HL-60(TB) leukemia = system: HL-60(TB) leukemia
OVCAR-4 ovarian = system: OVCAR-4 ovarian
KM12 colon = system: KM12 colon
HOP-92 NSCLC = system: HOP-92 NSCLC
A549 NSCLC = system: A549 NSCLC
LOX IMVI melanoma = system: LOX IMVI melanoma
PC-3 prostate = system: PC-3 prostate
K-562 leukemia = system: K-562 leukemia
SF-539 CNS = system: SF-539 CNS
MDA-MB-468 breast = system: MDA-MB-468 breast
SK-MEL-2 melanoma = system: SK-MEL-2 melanoma
A498 renal = system: A498 renal
RXF 393 renal = system: RXF 393 renal
HCC-2998 colon = system: HCC-2998 colon
NCI-H460 lung = system: NCI-H460 lung
SNB-75 CNS = system: SNB-75 CNS
UO-31 renal = system: UO-31 renal

## C=C1CCC2C3(C)COC(c4ccccc4F)OC3CCC2(C)C1C/C=C1/C(=O)OCC1O (configuration not stated)
SR leukemia
  GI50: 2.5 µM
  TGI: 19.9 µM
HT29 colon
  GI50: 1.9 µM
  TGI: 3.85 µM
MOLT-4 leukemia
  GI50: 3.31 µM
  TGI: 17.2 µM
OVCAR-3 ovarian
  GI50: 1.8 µM
  TGI: 3.7 µM
ACHN renal
  GI50: 1.85 µM
  TGI: 3.34 µM
M14 melanoma
  GI50: 4.24 µM
  TGI: 19.2 µM
SN12C renal
  GI50: 1.99 µM
  TGI: 4.49 µM
HS 578T breast
  GI50: 4.4 µM
  TGI: 47.9 µM
NCI-H522 lung
  GI50: 1.57 µM
  TGI: 3.12 µM
COLO 205 colon
  GI50: 2.96 µM
  TGI: 8.38 µM
NCI-H226 lung
  GI50: 1.67 µM
  TGI: 3.3 µM
U251 CNS
  GI50: 1.96 µM
  TGI: 3.97 µM
SK-MEL-5 melanoma
  GI50: 5.67 µM
  TGI: 18.2 µM
IGROV1 ovarian
  GI50: 5.66 µM
  TGI: 19.7 µM
MDA-MB-231 breast
  GI50: 2.41 µM
  TGI: 5.41 µM
T-47D breast
  GI50: 3.76 µM
  TGI: 16.9 µM
CCRF-CEM leukemia
  GI50: 1.81 µM
  TGI: 6.53 µM
OVCAR-8 ovarian
  GI50: 1.98 µM
  TGI: 5.53 µM
MALME-3M melanoma
  GI50: 7.35 µM
  TGI: 21.8 µM
UACC-62 melanoma
  GI50: 3.17 µM
  TGI: 12.1 µM
SF-268 CNS
  GI50: 3.85 µM
  TGI: 16.4 µM
SK-OV-3 ovarian
  GI50: 18.6 µM
  TGI: 35.4 µM
SF-295 CNS
  GI50: 2.13 µM
  TGI: 5.24 µM
NCI-H23 lung
  GI50: 10.8 µM
  TGI: 26 µM
UACC-257 melanoma
  GI50: 2.36 µM
  TGI: 13.2 µM
HCT-15 colon
  GI50: 1.85 µM
  TGI: 4.52 µM
SK-MEL-28 melanoma
  GI50: 2.92 µM
  TGI: 7.63 µM
CAKI-1 renal
  GI50: 3.84 µM
  TGI: 13.3 µM
786-0 renal
  GI50: 2.02 µM
  TGI: 3.69 µM
DU-145 prostate
  GI50: 4.09 µM
  TGI: 15.1 µM
MCF7 breast
  GI50: 1.83 µM
  TGI: 5.45 µM
OVCAR-5 ovarian
  GI50: 2.47 µM
  TGI: 5.78 µM
BT-549 breast
  GI50: 2.6 µM
  TGI: 5.76 µM
EKVX NSCLC
  GI50: 15.4 µM
  TGI: 30.3 µM
RPMI-8226 leukemia
  GI50: 2.6 µM
  TGI: 7.35 µM
HOP-62 NSCLC
  GI50: 15.8 µM
  TGI: 35.1 µM
SNB-19 CNS
  GI50: 11.5 µM
  TGI: 26.8 µM
TK-10 renal
  GI50: 8.18 µM
  TGI: 22.2 µM
MDA-MB-435
  GI50: 2.25 µM
  TGI: 5.79 µM
HL-60(TB) leukemia
  GI50: 1.65 µM
  TGI: 5.48 µM
OVCAR-4 ovarian
  GI50: 2.45 µM
  TGI: 7.65 µM
KM12 colon
  GI50: 2.99 µM
  TGI: 10.3 µM
HOP-92 NSCLC
  GI50: 3.65 µM
  TGI: 14.6 µM
A549 NSCLC
  GI50: 4.4 µM
  TGI: 94 µM
LOX IMVI melanoma
  GI50: 1.57 µM
  TGI: 2.92 µM
PC-3 prostate
  GI50: 3.45 µM
  TGI: 14.6 µM
K-562 leukemia
  GI50: 3.04 µM
  TGI: > 100 µM
SF-539 CNS
  GI50: 1.94 µM
  TGI: 3.52 µM
MDA-MB-468 breast
  GI50: 1.62 µM
  TGI: 3.63 µM
SK-MEL-2 melanoma
  GI50: 2.67 µM
  TGI: 7.79 µM
A498 renal
  GI50: 20.1 µM
  TGI: 37.3 µM
RXF 393 renal
  GI50: 3 µM
  TGI: 12.2 µM
HCC-2998 colon
  GI50: 5.12 µM
  TGI: 17.8 µM
NCI-H460 lung
  GI50: 3.36 µM
  TGI: > 100 µM
SNB-75 CNS
  GI50: 2.82 µM
  TGI: 12.8 µM
UO-31 renal
  GI50: 1.97 µM
  TGI: 5.54 µM
